Data reported in ChEMBL document CHEMBL3045288, “Pharmacophore of neonicotinoid insecticides” (J Pestic Sci, 2008).

Experiments:
[1] = tested on: Periplaneta americana; assay: Neuroblocking potency in Periplaneta americana (American cockroach) central nerve cord; assay type: functional
[2] = tested on: Spodoptera litura; assay: Insecticidal activity against Spodoptera litura at 500 ppm; assay type: functional
[3] = tested on: Myzus persicae; assay: Insecticidal activity against Myzus persicae (green peach aphid) at 100 ppm; assay type: functional
[4] = tested on: Aulacophora; assay: Insecticidal activity against Aulacophora femoralis (cucurbit leaf beetle) at 100 ppm; assay type: functional
[5] = tested on: Aulacophora; assay: Insecticidal activity against Aulacophora femoralis (cucurbit leaf beetle) at 20 ppm; assay type: functional
[6] = tested on: Myzus persicae; assay: Insecticidal activity against Myzus persicae (green peach aphid) at 20 ppm; assay type: functional
[7] = tested on: Spodoptera litura; assay: Insecticidal activity against Spodoptera litura at 100 ppm; assay type: functional
[8] = tested on: Myzus persicae; assay: Insecticidal activity against Myzus persicae (green peach aphid) at 500 ppm; assay type: functional
[9] = tested on: Aulacophora; assay: Insecticidal activity against Aulacophora femoralis (cucurbit leaf beetle) at 500 ppm; assay type: functional
[10] = Lipophilicity, log P of the compound; assay type: physicochemical; conditions: octanol/water
[11] = tested on: Periplaneta americana; assay: Insecticidal activity against Periplaneta americana (American cockroach) central nerve cord; assay type: functional
[12] = tested on: Spodoptera litura; assay: Insecticidal activity against Spodoptera litura at 20 ppm; assay type: functional

O=[N+]([O-])/C=C1\NCCN1Cc1ccc(Cl)nc1
log(1/BC) [1]: 5.02

O=[N+]([O-])/N=C1\N(CCCF)CCN1Cc1ccc(Cl)nc1
Activity [2]: 0%
Activity [3]: 100%
Activity [4]: 100%
Activity [5]: 100%
Activity [6]: 100%

O=[N+]([O-])/N=C1\NCCN1CCCCF
Activity [7]: 0%
Activity [8]: 97%
Activity [2]: 20%
Activity [3]: 60%
Activity [6]: 0%

O=[N+]([O-])/N=C1\NCCN1CCCF
Activity [7]: 20%
Activity [8]: 97%
Activity [2]: 100%
Activity [3]: 90%
Activity [4]: 100%
Activity [5]: 0%
Activity [9]: 100%
Activity [6]: 60%

O=[N+]([O-])/N=C1\NCCN1CCCCl
Activity [8]: 97%
Activity [2]: 0%
Activity [3]: 0%
Activity [4]: 100%
Activity [5]: 50%
Activity [9]: 100%

O=[N+]([O-])/N=C1\NCCN1CCF
Activity [8]: 60%
Activity [2]: 0%
Activity [9]: 0%

CCCN1CCN/C1=N\[N+](=O)[O-]
Activity [8]: 60%
Activity [2]: 0%
Activity [9]: 0%

O=[N+]([O-])/N=C1\NCCCN1Cc1ccc(Cl)nc1
log(1/BC) [1]: 5.35

O=[N+]([O-])/C=C1\SCCN1Cc1ccc(Cl)nc1
log(1/BC) [1]: 6.19

CN1CCN(Cc2ccc(Cl)nc2)/C1=N/[N+](=O)[O-]
log(1/BC) [1]: 3.81

O=[N+]([O-])/N=c1\ccccn1Cc1ccc(Cl)nc1
log(1/BC) [1]: 5.09

O=[N+]([O-])/N=c1\ccccn1Cc1cnc(Cl)s1
log(1/BC) [1]: 5.75

O=[N+]([O-])/C=C1\CCCN1Cc1ccc(Cl)nc1
log(1/BC) [1]: 6.43

O=[N+]([O-])/C=C1\NCCN1Cc1cnc(Cl)s1
log(1/BC) [1]: 5.73

O=[N+]([O-])/N=C1\SCCN1Cc1cnc(Cl)s1
log(1/BC) [1]: 6.31

O=[N+]([O-])/C=C1\CCCN1Cc1cnc(Cl)s1
log(1/BC) [1]: 6
logP [10]: 0.64

CN1CCN(Cc2ccc(Cl)nc2)/C1=C/[N+](=O)[O-]
log(1/BC) [1]: 3.84

O=[N+]([O-])/N=c1\[nH]ccn1Cc1cnc(Cl)s1
log(1/BC) [1]: 4.61

O=[N+]([O-])/N=c1\sccn1Cc1cnc(Cl)s1
log(1/BC) [1]: 5.79

O=[N+]([O-])/N=C1/N(CCCCN2CCN(Cc3ccc(Cl)nc3)/C2=N/[N+](=O)[O-])CCN1Cc1ccc(Cl)nc1
Activity [11]: 11 nmol

O=[N+]([O-])/N=C1/N(CCCCCCCCCN2CCN(Cc3ccc(Cl)nc3)/C2=N/[N+](=O)[O-])CCN1Cc1ccc(Cl)nc1
Activity [11]: 2.8 nmol

O=[N+]([O-])/N=C1/N(CCCCCN2CCN(Cc3ccc(Cl)nc3)/C2=N/[N+](=O)[O-])CCN1Cc1ccc(Cl)nc1
Activity [11]: 3.9 nmol

O=[N+]([O-])/N=C1/N(CCCN2CCN(Cc3ccc(Cl)nc3)/C2=N/[N+](=O)[O-])CCN1Cc1ccc(Cl)nc1
Activity [11]: 4.9 nmol

O=[N+]([O-])/N=C1/N(CCCCCCCCCCN2CCN(Cc3ccc(Cl)nc3)/C2=N/[N+](=O)[O-])CCN1Cc1ccc(Cl)nc1
Activity [11]: 3.7 nmol

O=[N+]([O-])/N=C1\NCCN1CCC(F)(F)F
Activity [8]: 0%
Activity [2]: 30%
Activity [4]: 50%
Activity [9]: 100%

O=[N+]([O-])/N=C1\NCCN1CCC(F)=C(F)F
Activity [8]: 0%
Activity [2]: 0%
Activity [9]: 0%

O=[N+]([O-])/N=C1\N(CCN2CCN(Cc3ccc(Cl)nc3)/C2=N\[N+](=O)[O-])CCN1Cc1ccc(Cl)nc1
Activity [11]: 8.3 nmol

O=[N+]([O-])/N=C1/N(CCCCCCCCN2CCN(Cc3ccc(Cl)nc3)/C2=N/[N+](=O)[O-])CCN1Cc1ccc(Cl)nc1
Activity [11]: 4.5 nmol

O=[N+]([O-])/N=c1\sccn1Cc1ccc(Cl)nc1
log(1/BC) [1]: 5.68

O=[N+]([O-])Nc1nccn1Cc1ccc(Cl)nc1 [DEHYDROIMIDACLOPRID]
log(1/BC) [1]: 4.31

O=[N+]([O-])/N=C1/N(CCCCCCCN2CCN(Cc3ccc(Cl)nc3)/C2=N/[N+](=O)[O-])CCN1Cc1ccc(Cl)nc1 [Heptamethylene 1,7-bis-imadacloprid]
Activity [11]: 2.8 nmol

O=[N+]([O-])/N=C1/N(CCCCCCN2CCN(Cc3ccc(Cl)nc3)/C2=N/[N+](=O)[O-])CCN1Cc1ccc(Cl)nc1 [Hexamethylene 1,6-bis-imadacloprid]
Activity [11]: 2.2 nmol

O=[N+]([O-])/N=C1\NCCN1Cc1ccc(Cl)nc1 [IMIDACLOPRID]
Activity [11]: 2.5 nmol
Activity [7]: 80%
log(1/BC) [1]: 5.64
Activity [8]: 100%
Activity [2]: 100%
Activity [3]: 100%
Activity [12]: 40%
Activity [4]: 100%
Activity [5]: 100%
Activity [9]: 100%
Activity [6]: 100%

O=[N+]([O-])/N=C1\NCCN1Cc1cnc(Cl)s1 [IMIDACLOTHIZ]
log(1/BC) [1]: 5.97
